# Measurements reported in US20220017572A1, “GEMINOID LIPOPEPTIDE COMPOUNDS AND THEIR USES” (Erasmus University Medical Center Rotterdam, priority 2016, published 2022).
# Residues, ends and D or L forms follow the SMILES beside them.
# Experiments:
# DENV-2/NGC = test: Dengue replication (plaque) assay in VERO cells; type: cell-based, Dengue virus
# Procedure: 1×10^6 Vero E6 cells were plated per well into a 6-wells plate and incubated overnight at 37° C. Next day, the DENV-2/NGC virus stock was diluted to 10^4 TICD50/ml, 10^3 TICD50/ml, 10^2 TICD50/ml and 1 ml of the respective virus dilutions was added to each well. Wells contained approximately 80% confluent monolayers of Vero cells. After an incubation period of 1 hour at 37° C., cells were washed twice with medium (DMEM) and medium containing 2% methyl cellulose was added to the wells. To this medium C16-KAK-C16 10 uM was added (W) in DMSO, or an equivalent amount of DMSO (0.05%) was added (W/O). Plate was incubated at 37° C. for two days. Methyl cellulose overlays were removed and cells were fixed with absolute ethanol. Cells were subsequently incubated with specific DENY monoclonal antibody for 1 hour at 37° C., followed by incubation with HRPO-labeled rabbit-anti mouse conjugate. Positive plaques were counted after incubation with AEC substrate chromogen.
# The experiment was performed as described in the legend of FIG. 8 at a viral dose of 10^3 TICD50/ml in all plates.
# C16-KAK-C16 was subsequently tested in a standard Dengue replication (plaque) assay in VERO cells (FIG. 8). […] In a separate experiment this was confirmed with a constant intermediate viral load of and different concentrations of C16-KAK-C16 (FIG. 9)
# dengue 2 protease = biological target: T1, dengue 2 protease (Dengue virus type 2, UniProt P14340); test: Dengue 2 protease inhibition, hydrolysis of Z-RR-MCA; type: biochemical, dengue 2 virus; set-up: unit not given here; conditions: 30 μM of inhibitor; 10 μM Z-RR-MCA, pH 9.0, 37° C.; initial activity in UAF/min
# T1 construct: The active site of the dengue protease is in the N-terminal part of NS3
# [1] = biological target: T2, Dengue NS3-NS2B peptidase (Dengue virus type 2, UniProt P14340); test: Dengue NS3-NS2B peptidase hydrolysis of Abz-AKRRSQ-EDDnp; type: biochemical; conditions: 50 mM Tris-HCl pH 9.0, FIG. 5
# T2 construct: The active site of the dengue protease is in the N-terminal part of NS3
# Procedure: FIG. 5A, FIG. 5B and FIG. 5C show Dengue NS3-NS2B peptidase hydrolysis of Abz-AKRRSQ-EDDnp (SEQ ID NO:1) in 50 mM Tris-HCl pH 9.0. FIG. 5A Inhibitors: (◯) C16-KAAK-C16 (SEQ ID NO:42), (▪)C16-KAK-C16, (▴)C16-KGGK-C16(SEQ ID NO:41). FIG. 5B Substrates: (◯) Abz AKRRSQ-EDDnp (SEQ ID NO:1) and (●) Suc AAPF-MCA with different concentrations of C16-KGGK-C16 (SEQ ID NO:41). FIG. 5C Followed in time at different C16-KGGK-C16 (SEQ ID NO:41) concentrations.
# FIG. 6A and FIG. 6B show Dengue NS3-NS2B peptidase hydrolysis of Abz AKRRSQ-EDDnp (SEQ ID NO:1) in the presence of C16-KK-C16 (KR), C16-KAK-C16 (KAK), C16-KAAK-C16 (KAAK; (SEQ ID NO:42)), C16-KAAAAK-C16 (KAAAAK; (SEQ ID NO:53)), C16-KGK-C16 (KOK), C16-KGGK-C16 (KOOK; (SEQ ID NO:41)), and C16-KGGGK-C16 (KGGGK; (SEQ ID NO:40)). “◯” means enzyme activity without inhibitor. FIG. 6A E+K means that the inhibitor+enzyme were pre-incubated for 0, 15 and 30 min and then the substrate was added. FIG. 6B K means that the inhibitor was pre-incubated for 0, 15 and 30 min and then the enzyme and substrate were added.
# The best substrate for dengue protease is Abz-AKRR↓SQ-EDDnp (SEQ ID NO:1) [Gouvea et al., 2007]. […] Geminoids with either G or A are inhibitors of Dengue protease, but which is the better inhibitor does depend on the nature of the substrates (compare FIG. 5a and Table 1). […]
# T2 sequence (P14340 1476-1653): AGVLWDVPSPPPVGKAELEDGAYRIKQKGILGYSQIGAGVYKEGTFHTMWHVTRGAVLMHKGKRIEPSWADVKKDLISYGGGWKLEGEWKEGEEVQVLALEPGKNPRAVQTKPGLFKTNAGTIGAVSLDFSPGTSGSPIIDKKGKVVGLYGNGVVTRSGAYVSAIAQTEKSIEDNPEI
# T1 sequence (P14340 1476-1653): as above
Compound,"inhibition of plaque formation (DENV-2/NGC; 10 uM, Vero E6 cells, DENV-2/NGC 10^2-10^4 TICD50/ml, two days, depending on the viral load)","virus replication (in words) (DENV-2/NGC; VERO cells, DENV-2/NGC)",Activity with inhibitors (dengue 2 protease),inhibition of Dengue protease with substrate Abz-AKRRSQ-EDDnp (in words) [1]
CCCCCCCCCCCCCCCCNC(=O)[C@H](CCCCN)NC(=O)[C@H](C)NC(=O)[C@H](CCCCN)NC(=O)CCCCCCCCCCCCCCC [C16-KAK-C16],up to 90%,significant reduction of virus replication,0,–
"CCCCCCCCCCCCCCCCNC(=O)[C@H](CCCCN)NC(=O)CNC(=O)CNC(=O)[C@H](CCCCN)NC(=O)CCCCCCCCCCCCCCC [C16-KGGK-C16, C15H31CO-KGGK-NH—C16H33] (HELM PEPTIDE1{[CCCCCCCCCCCCCCCC(=O)[*:2]].K.G.G.K.[CCCCCCCCCCCCCCCCN[*:1]]}$$$$V2.0)",–,–,–,does not depend on the choice of substrate
